From patent US12291501B2 (University of Florida Research Foundation, Inc., priority 2021, dated 2025)
Values joined by “and” are separate entries in the source; they are usually repeats but may differ in a detail not shown here. Equal entries are not always repeated. “Also recorded” adds a separate entry of the source. Where two headings read alike, the source gives them in different places.

How the values were obtained:
[1] = molecular target: T1, α7 nAChR (Homo sapiens, UniProt P36544); conditions: cited from earlier work; for Agonist character at α7: earlier reports / Papke et al. (2022)
T1 construct: expressed in transfected cells; host or cells: Xenopus laevis oocytes, injected with in vitro transcribed RNA
T1 sequence (P36544 23-502): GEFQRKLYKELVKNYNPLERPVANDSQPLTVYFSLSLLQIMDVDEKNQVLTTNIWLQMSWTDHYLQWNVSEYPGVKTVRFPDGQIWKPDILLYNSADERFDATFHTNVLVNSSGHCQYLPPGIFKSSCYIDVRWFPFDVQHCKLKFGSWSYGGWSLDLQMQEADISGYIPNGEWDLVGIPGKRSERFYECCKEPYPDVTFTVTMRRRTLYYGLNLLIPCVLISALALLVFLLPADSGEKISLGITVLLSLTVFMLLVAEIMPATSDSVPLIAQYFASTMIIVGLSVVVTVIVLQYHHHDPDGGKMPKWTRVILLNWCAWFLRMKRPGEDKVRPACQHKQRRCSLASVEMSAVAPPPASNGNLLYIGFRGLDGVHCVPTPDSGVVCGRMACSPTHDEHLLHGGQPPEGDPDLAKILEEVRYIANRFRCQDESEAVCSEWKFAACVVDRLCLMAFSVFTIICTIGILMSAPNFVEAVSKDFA

[2] = molecular target: T2, α9 nAChR (Homo sapiens, UniProt Q9UGM1); conditions: earlier reports / Papke et al. (2022), Richter et al. (2022); cited from earlier work
T2 construct: expressed in transfected cells; host or cells: Xenopus laevis oocytes, injected with in vitro transcribed RNA
T2 sequence (Q9UGM1 26-479 limits assumed): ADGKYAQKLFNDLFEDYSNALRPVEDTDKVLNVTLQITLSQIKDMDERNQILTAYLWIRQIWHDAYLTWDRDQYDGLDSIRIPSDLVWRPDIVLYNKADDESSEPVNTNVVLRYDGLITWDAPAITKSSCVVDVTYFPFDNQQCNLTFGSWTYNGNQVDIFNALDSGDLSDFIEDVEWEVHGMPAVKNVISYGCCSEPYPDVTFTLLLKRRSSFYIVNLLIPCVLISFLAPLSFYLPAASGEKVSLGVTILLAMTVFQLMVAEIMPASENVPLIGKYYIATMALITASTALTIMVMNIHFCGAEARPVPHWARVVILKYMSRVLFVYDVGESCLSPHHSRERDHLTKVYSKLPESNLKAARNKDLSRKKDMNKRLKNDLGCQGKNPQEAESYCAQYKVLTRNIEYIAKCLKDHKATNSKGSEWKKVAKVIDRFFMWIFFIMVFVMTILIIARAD

[3] = molecular target: T2, α9 nAChR; experiment: Two-electrode voltage-clamp, agonist concentration-response, α9 nAChR in Xenopus oocytes; type: cell-based; conditions: for EC50 / α9 Imax: peak currents, ± standard error of fit; for α9 Imax: relative to ACh (Imax = 1)
Text: (§1) Electrophysiology: Xenopus oocytes were microinjected with RNAs to produce functional nAChR which were characterized by two-electrode voltage-clamp measurements. FIGS. 5A-7D present concentration-response curves for the new compounds evaluated with α7, α9, and α9α10 receptors. Table 1 presents the values for Imax and EC50 with these receptors and Table 2 summarizes inhibition data for the compounds with heteromeric nAChR.
(§2) Molecular Biology: Plasmid DNAs encoding the human α7 and heteromeric nAChR were obtained from Jon Lindstrom (University of Pennsylvania, Philadelphia, PA). Mouse muscle subunit clones were obtained from Jim Boulter (Salk Institute, La Jolla CA) and Paul Gardner (Dartmouth, Hanover NH). The human resistance-to-cholinesterase 3 ([…]) clone was obtained from Millet Treinin (Hebrew University, Jerusalem, Israel) and RNA co-injected with α7 to improve the level and speed of receptor expression without affecting their pharmacological properties. Plasmid DNA encoding the human α10 nAChR was obtained from J. Michael McIntosh. Plasmid DNA encoding the human α9 nAChR and the human receptor-associated protein of the synapse (RAPSYN) with codon optimization for expression in Xenopus laevis were obtained from Katrin Richter. RAPSYN RNA was co-injected with the α9 and α10 to improve expression (Richter et al., (2022) Front. Cell Neurosci. 16: 779081). After linearization and purification of the plasmid DNAs, RNAs were prepared using the mMessage mMachine in vitro RNA transcription kit (Ambion, Austin, TX). Frogs were maintained in the Animal Care Service facility of the University of Florida, and all procedures were approved by the University of Florida Institutional Animal Care and Use Committee (approval number 202002669). In brief, the animals were first anesthetized for 15-20 min in 1.5 l frog tank water containing 1 g of MS-222 buffered with sodium bicarbonate. Oocytes were obtained surgically from mature female Xenopus laevis (Nasco, Ft. Atkinson WI, USA) and treated with 1.4 mg/ml type 1 collagenase (Worthington Biochemicals, Freehold NJ, USA) for 2-4 h at rt in Ca2+-free Barth's solution (88 mM NaCl, 1 mM KCl, 2.38 mM NaHCO3, 0.82 mM MgSO4, 15 mM HEPES, and 12 mg/l tetracycline, pH 7.6) to remove the ovarian tissue and the follicular layers. Stage V oocytes were injected with 4-6 ng CHRNA7 RNA and 2-3 ng RIC3 RNA (2:1 ratio) in 50 nl water, or with 12 ng CHRNA9 RNA and 3 ng RAPSN RNA, or along with 12 ng CHRNA10 RNA in 50 nl water. Oocytes were maintained in Barth's solution containing 0.32 mM Ca(NO3)2 and 0.41 mM CaCl2, and recordings were conducted 2-20 days after injection.
(§3) Electrophysiology: Two-electrode voltage-clamp experiments were conducted using OpusXpress 6000A (Molecular Devices, Union City CA, USA). Both the voltage and current electrodes were filled with 3 M KCl. Oocytes were voltage-clamped at −60 mV at rt. The oocytes were perfused with Ringer's solution (115 mM NaCl, 2.5 mM KCl, 1.8 mM CaCl2, 10 mM HEPES, 1 μM atropine, pH 7.2) at 2 ml/min. […] Drug applications were 12 s in duration followed by 181 s washout periods.
(§4) The responses were calculated as both peak-current amplitudes and net charge. Data were collected at 50 Hz, filtered at 20 Hz, and analyzed by Clampfit (Molecular Devices) and Excel (Microsoft, Redmond, WA, United States). Data are expressed as means±SEM from at least five oocytes for each experiment and plotted with Kaleidagraph 4.5.2 (Abelbeck Software, Reading, PA, United States). Each episode of data acquisition was a total of 210 s and included an initial 30 s period used to define the baseline for the drug-evoked responses. After 30 s, drugs were applied, and the following 120 s were defined as the drug response period for analysis. […] The values for the curve fits were generated using the Levenberg-Marquardt algorithm to obtain the best Chi-Square fit to the Hill equation using the Kaleidagraph 4.5.2 plotting program. […]

[4] = molecular target: T1, α7 nAChR; experiment: Two-electrode voltage-clamp, agonist concentration-response, α7 nAChR in Xenopus oocytes; type: cell-based; conditions: for EC50 / α7 Imax: net charge, ± standard error of fit; for α7 Imax: relative to ACh (Imax = 1)
Text: as §1
(§5) Molecular Biology: Plasmid DNAs encoding the human α7 and heteromeric nAChR were obtained from Jon Lindstrom (University of Pennsylvania, Philadelphia, PA). Mouse muscle subunit clones were obtained from Jim Boulter (Salk Institute, La Jolla CA) and Paul Gardner (Dartmouth, Hanover NH). […] Plasmid DNA encoding the human α10 nAChR was obtained from J. Michael McIntosh. Plasmid DNA encoding the human α9 nAChR and the human receptor-associated protein of the synapse (RAPSYN) with codon optimization for expression in Xenopus laevis were obtained from Katrin Richter. […] After linearization and purification of the plasmid DNAs, RNAs were prepared using the mMessage mMachine in vitro RNA transcription kit (Ambion, Austin, TX). […] Oocytes were maintained in Barth's solution containing 0.32 mM Ca(NO3)2 and 0.41 mM CaCl2, and recordings were conducted 2-20 days after injection.
(§6) Electrophysiology: Two-electrode voltage-clamp experiments were conducted using OpusXpress 6000A (Molecular Devices, Union City CA, USA). Both the voltage and current electrodes were filled with 3 M KCl. Oocytes were voltage-clamped at −60 mV at rt.
(§7) The responses were calculated as both peak-current amplitudes and net charge. Data were collected at 50 Hz, filtered at 20 Hz, and analyzed by Clampfit (Molecular Devices) and Excel (Microsoft, Redmond, WA, United States). Data are expressed as means±SEM from at least five oocytes for each experiment and plotted with Kaleidagraph 4.5.2 (Abelbeck Software, Reading, PA, United States). Each episode of data acquisition was a total of 210 s and included an initial 30 s period used to define the baseline for the drug-evoked responses. After 30 s, drugs were applied, and the following 120 s were defined as the drug response period for analysis. […] The values for the curve fits were generated using the Levenberg-Marquardt algorithm to obtain the best Chi-Square fit to the Hill equation using the Kaleidagraph 4.5.2 plotting program. The errors in the tables are the calculated standard errors of the fit parameters based on the goodness of fit.

[5] = molecular target: T3, α9α10 nAChR (Homo sapiens, UniProt Q9GZZ6+Q9UGM1); conditions: relative to ACh (Imax = 1); data taken from Papke et al. (2022); cited from earlier work
T3 construct: expressed in transfected cells; host or cells: Xenopus laevis oocytes, injected with in vitro transcribed RNA
T3 sequence (Q9UGM1 26-479 limits assumed): as above
T3 sequence (Q9GZZ6 25-450): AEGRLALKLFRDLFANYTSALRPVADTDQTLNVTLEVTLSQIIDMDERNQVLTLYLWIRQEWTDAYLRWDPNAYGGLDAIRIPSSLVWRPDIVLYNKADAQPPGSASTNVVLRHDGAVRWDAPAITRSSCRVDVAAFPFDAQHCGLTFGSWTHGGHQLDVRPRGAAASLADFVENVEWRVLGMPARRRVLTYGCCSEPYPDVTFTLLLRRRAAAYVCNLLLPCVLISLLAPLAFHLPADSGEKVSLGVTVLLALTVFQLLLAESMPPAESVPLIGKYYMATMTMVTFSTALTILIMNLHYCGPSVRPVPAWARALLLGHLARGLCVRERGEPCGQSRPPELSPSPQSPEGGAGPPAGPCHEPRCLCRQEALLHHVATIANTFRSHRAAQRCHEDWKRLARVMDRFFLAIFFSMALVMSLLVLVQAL

[6] = molecular target: T4, α4β2 nAChR (Homo sapiens, UniProt P17787+P43681); experiment: Inhibition of control ACh responses by co-application, α4β2 nAChR in oocytes; type: cell-based; conditions: 3 μM compound co-applied with ACh; fraction of control ACh response
T4 construct: expressed in transfected cells; host or cells: Xenopus laevis oocytes
T4 sequence (P43681 29-627 limits assumed): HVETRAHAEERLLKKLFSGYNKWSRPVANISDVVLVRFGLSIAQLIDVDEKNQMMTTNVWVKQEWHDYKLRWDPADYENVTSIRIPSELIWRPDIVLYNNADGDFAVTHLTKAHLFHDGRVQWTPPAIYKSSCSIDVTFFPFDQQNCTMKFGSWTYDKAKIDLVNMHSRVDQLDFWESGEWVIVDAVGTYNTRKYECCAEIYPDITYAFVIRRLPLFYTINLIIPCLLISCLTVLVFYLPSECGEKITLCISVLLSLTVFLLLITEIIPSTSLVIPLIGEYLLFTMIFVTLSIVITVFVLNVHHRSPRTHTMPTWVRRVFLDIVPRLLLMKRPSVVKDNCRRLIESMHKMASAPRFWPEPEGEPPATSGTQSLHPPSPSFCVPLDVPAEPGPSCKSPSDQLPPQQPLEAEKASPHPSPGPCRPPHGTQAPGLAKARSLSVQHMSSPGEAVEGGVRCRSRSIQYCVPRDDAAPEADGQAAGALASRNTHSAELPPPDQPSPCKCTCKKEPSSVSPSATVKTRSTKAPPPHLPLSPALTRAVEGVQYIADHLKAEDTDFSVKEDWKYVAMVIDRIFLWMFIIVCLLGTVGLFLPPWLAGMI
T4 sequence (P17787 26-502): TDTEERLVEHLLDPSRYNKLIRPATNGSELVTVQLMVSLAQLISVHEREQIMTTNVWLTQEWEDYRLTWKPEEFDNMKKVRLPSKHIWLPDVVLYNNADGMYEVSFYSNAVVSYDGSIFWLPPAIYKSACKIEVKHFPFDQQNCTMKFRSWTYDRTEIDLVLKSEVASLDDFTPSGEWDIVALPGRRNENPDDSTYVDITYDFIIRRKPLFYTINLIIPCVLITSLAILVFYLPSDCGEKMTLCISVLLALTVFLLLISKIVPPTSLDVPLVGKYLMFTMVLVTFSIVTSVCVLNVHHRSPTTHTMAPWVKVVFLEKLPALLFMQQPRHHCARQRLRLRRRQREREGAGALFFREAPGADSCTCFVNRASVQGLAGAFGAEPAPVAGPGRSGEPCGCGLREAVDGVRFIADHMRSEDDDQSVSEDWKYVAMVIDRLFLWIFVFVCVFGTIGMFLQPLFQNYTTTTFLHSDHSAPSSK
Procedure: (§8) Initial profiling against heteromeric receptors: The test compounds for their ability to activate or inhibit other nAChR subtypes were evaluated. Agonist activity was evaluated by applying the compounds at 100 or 30 μM to human α4β2 and α3β4 as well as to mouse muscle α1β1εδ nAChR expressed in Xenopus oocytes. […] The inhibitory activity was generally low (Table 3).
as §2, §3, §7

[7] = molecular target: T5, α1β1εδ nAChR (Mus musculus, UniProt P02716+P04756+P09690+P20782); experiment: Inhibition of control ACh responses by co-application, muscle α1β1εδ nAChR in oocytes; type: cell-based; conditions: 3 μM compound co-applied with ACh; fraction of control ACh response
T5 construct: expressed in transfected cells; host or cells: Xenopus laevis oocytes
Procedure: as §8, §2, §3, §7

[8] = molecular target: T3, α9α10 nAChR; experiment: Two-electrode voltage-clamp, agonist concentration-response, α9α10 nAChR in Xenopus oocytes; type: cell-based; conditions: for EC50 / α9α10 Imax: peak currents, ± standard error of fit; for α9α10 Imax: relative to ACh (Imax = 1)
Text: as §1, §2, §3, §4

[9] = molecular target: T6, α3β4 nAChR (Homo sapiens, UniProt P30926+P32297); experiment: Inhibition of control ACh responses by co-application, α3β4 nAChR in oocytes; type: cell-based; conditions: 3 μM compound co-applied with ACh; fraction of control ACh response
T6 construct: expressed in transfected cells; host or cells: Xenopus laevis oocytes
T6 sequence (P32297 32-505): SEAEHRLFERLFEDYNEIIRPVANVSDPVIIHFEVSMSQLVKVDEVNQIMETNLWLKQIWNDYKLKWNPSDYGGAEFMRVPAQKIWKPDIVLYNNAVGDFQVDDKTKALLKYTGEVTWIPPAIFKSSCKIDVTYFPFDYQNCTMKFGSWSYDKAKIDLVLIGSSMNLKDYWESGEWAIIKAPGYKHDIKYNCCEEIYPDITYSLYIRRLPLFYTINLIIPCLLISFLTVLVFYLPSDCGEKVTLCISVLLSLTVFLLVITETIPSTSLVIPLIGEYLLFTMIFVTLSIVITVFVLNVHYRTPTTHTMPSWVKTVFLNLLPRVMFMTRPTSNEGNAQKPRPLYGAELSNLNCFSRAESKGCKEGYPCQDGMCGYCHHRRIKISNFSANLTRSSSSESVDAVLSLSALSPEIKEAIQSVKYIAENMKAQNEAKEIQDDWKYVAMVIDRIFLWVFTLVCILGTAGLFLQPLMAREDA
T6 sequence (P30926 22-498): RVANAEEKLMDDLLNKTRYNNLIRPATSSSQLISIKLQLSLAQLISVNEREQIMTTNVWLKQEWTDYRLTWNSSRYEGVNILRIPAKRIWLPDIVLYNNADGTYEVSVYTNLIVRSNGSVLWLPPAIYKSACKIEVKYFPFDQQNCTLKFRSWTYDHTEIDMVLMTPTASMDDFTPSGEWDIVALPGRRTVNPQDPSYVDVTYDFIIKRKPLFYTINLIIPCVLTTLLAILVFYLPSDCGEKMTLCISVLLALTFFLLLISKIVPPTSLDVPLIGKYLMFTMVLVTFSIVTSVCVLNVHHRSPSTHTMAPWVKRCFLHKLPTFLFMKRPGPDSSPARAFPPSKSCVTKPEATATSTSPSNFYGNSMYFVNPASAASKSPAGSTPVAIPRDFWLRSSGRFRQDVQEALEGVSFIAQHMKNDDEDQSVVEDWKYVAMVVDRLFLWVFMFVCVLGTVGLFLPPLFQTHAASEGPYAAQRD
Procedure: as §8, §2, §3, §7

[10] = molecular target: T1, α7 nAChR; experiment: α7 responses to drugs co-applied with the PAM PNU-120596 (silent agonism); type: cell-based; conditions: for Response co-applied with PNU-120596, normalized to ACh co-applied with PNU-120596: drug 30 μM + 10 μM PNU-120596, normalized to 30 μM ACh + 10 μM PNU-120596
Text: as §5, §6, §7

[11] = 3e vs larger ammonium analogs, 3h relative to 3g

Row | Structure (SMILES) | Agonist character at α7 [1] | Agonist character / efficacy at α9 [3] | Agonist character / efficacy at α7 [4] | Effect of co-application on the control ACh responses, α4β2 [6] | Effect of co-application on the control ACh responses, α1β1εδ [7] | EC50 [3] [µM] | α9 Imax [3] | Agonist character / efficacy at α9α10 [8] | EC50 [8] [µM] | α9α10 Imax [8] | EC50 [4] [µM] | α7 Imax [4] | Effect of co-application on the control ACh responses, α3β4 [9] | Response co-applied with PNU-120596, normalized to ACh co-applied with PNU-120596 [10] | further results
1 | CC[N+]1(CC)CCCCC1 [diE-piperidinium, reference compound] | silent agonist | – | – | – | – | – | – | – | – | – | – | – | – | – | –
2 | CC[N+]1(CC)CCN(c2ccc(C(F)(F)F)cc2)CC1 [pCF3-diEPP, reference compound] | – | – | – | – | – | – | – | – | – | – | – | – | – | – | Agonist character at α9 [2]: partial agonist
3 | CC[N+]1(CC)CCN(c2ccc(C(=O)Nc3cccc(C)n3)cc2)CC1.[I-] [Compound 2, 1,1-diethyl-4-(4-((6-methylpyridin-2-yl)carbamoyl)phenyl)piperazin-1-ium iodide] | partial agonists | full agonist | partial agonist | – | – | – | – | – | – | – | – | – | – | – | Agonist character at α9 [2]: full α9 agonist; EC50 ([1]; data taken from Papke et al. (2022)): 4.3 to 6.4 µM; α7 Imax ([1]; relative to ACh (Imax = 1), data taken from Papke et al. (2022)): 0.40-0.57; α9α10 Imax [5]: 0.90 ± 0.02
4 | CC[N+]1(CC)CCN(c2ccc(-n3cccc3)cc2)CC1.[I-] [Compound 3i, 4-(4-(1H-pyrrol-1-yl)phenyl)-1,1-diethylpiperazin-1-ium iodide] | – | reduced efficacy; also recorded: weakened partial agonist | reduced efficacy | 0.709 ± 0.086 | 0.691 ± 0.094 | 1.12 ± 0.25 | 0.27 ± 0.01 | weakened partial agonist | 1.5 ± 0.6 | 0.17 ± 0.01 | 27 ± 4 | 0.041 ± 0.002 and 0.041 | 0.387 ± 0.057 | 0.08 | Response co-applied with PNU-120596 relative to the ACh controls ([10]; 30 μM compound + 10 μM PNU-120596, relative to ACh alone controls): ~2 times
5 | CC[N+]1(CC)CCN(c2ccc(C(=O)N3CCCC3)cc2)CC1.[I-] [Compound 3a, 1,1-diethyl-4-(4-(pyrrolidine-1-carbonyl)phenyl)piperazin-1-ium iodide] | – | moderate efficacy | lost agonism | 0.919 ± 0.022 | 0.541 ± 0.048 | 45 ± 22 | 0.69 ± 0.09 | – | 15 ± 3.1 | 0.56 ± 0.04 | 500 ± 500 | 0.06 ± 0.11 and 0.06 | 0.849 ± 0.034 | 0.01 | –
6 | C[N+]1(C)CCCCC1 [diM-piperidinium, reference compound] | essentially a full agonist | – | – | – | – | – | – | – | – | – | – | – | – | – | –
7 | CC[N+]1(CC)CCN(c2ccc(C(=O)Nc3ccccn3)cc2)CC1.[I-] [Compound 3c, 1,1-diethyl-4-(4-(pyridin-2-ylcarbamoyl)phenyl)piperazin-1-ium iodide] | – | – | partial agonists | 0.697 ± 0.027 | 0.506 ± 0.082 | 18 ± 36 | 1.18 ± 0.39 | efficacious agonist | 1.18 ± 0.26 | 0.94 ± 0.04 | 26 ± 20 | 0.46 ± 0.08 and 0.46 | 0.789 ± 0.057 | 0.12 | Fold better potency for α9α10 relative to α9 homomers ([8]; ratio of EC50 values): 10 fold
8 | Cc1cccc(NC(=O)c2ccc(N3CC[N+](C)(C)CC3)cc2)n1.[I-] [Compound 3e, 1,1-dimethyl-4-(4-((6-methylpyridin-2-yl)carbamoyl)phenyl)piperazin-1-ium iodide] | – | partial agonist | – | 0.912 ± 0.038 | 0.709 ± 0.091 | 7 ± 6 | 0.51 ± 0.07 | fully efficacious agonist | 4.2 ± 1.5 | 0.89 ± 0.07 | 4.3 ± 1 | 0.57 ± 0.03 and 0.57 | 0.838 ± 0.037 | 0.16 | Fold loss of potency at α9 relative to comparator compound [3, 11]: about 10 fold; Fold loss of potency at α9α10 relative to comparator compound [8, 11]: about 10 fold
